Data published in publication PMC6270420, “Antibacterial Activity of Salicylanilide 4-(Trifluoromethyl)benzoates” (Molecules, 2013).
Converted amounts (≈) assume the structure as drawn. Where two headings read alike, the source gives them in different places.

Experiments:
[1] = tested on: Gram-positive cocci including MRSA; test: Antibacterial microdilution, summary for Gram-positive cocci; assay type: cell-based; settings: Staphylococcus aureus, read-out: MICs against Gram-positive cocci
Method: (§1) The in vitro antibacterial activity was assayed against eight Gram-positive and Gram-negative strains: Staphylococcus aureus CCM 4516/08, methicillin-resistant Staphylococcus aureus H 5996/08 (MRSA), Staphylococcus epidermidis H 6966/08, Enterococcus sp. J 14365/08; Escherichia coli CCM 4517, Klebsiella pneumoniae D 11750/08, ESBL-positive Klebsiella pneumoniae J 14368/08, and Pseudomonas aeruginosa CCM 1961.
(§2) The microdilution broth method modified according to standard M07-A07 in Mueller-Hinton broth (HiMedia Laboratories, Mumbai, India) adjusted to pH 7.4 (±0.2) was used. The tested compounds were dissolved in DMSO to the final concentrations ranging from […]. Benzylpenicillin (penicillin G) was used as a comparative drug. Bacterial inoculum in sterile water was prepared to match 0.5 McFarland scale ([…]). The minimum inhibitory concentrations were assayed as 90% (IC90) or higher reduction of growth when compared to the control. The determination of results was performed visually and spectrophotometrically (at 540 nm). The values of MICs were determined after 24 and 48 h of incubation in the darkness at 35 °C (±0.1) in a humid atmosphere.

[2] = tested on: Mycobacterium kansasii 235/80; test: Antimycobacterial MIC micromethod; assay type: cell-based; settings: read-out: MIC M. kansasii 235/80
[3] = tested on: Mycobacterium avium 330/88; test: Antimycobacterial MIC micromethod; assay type: cell-based
[4] = tested on: M. kansasii 6509/96 (clinically isolated strain); test: Antimycobacterial MIC micromethod; assay type: cell-based; settings: Mycobacterium kansasii, read-out: MIC M. kansasii 6509/96
[5] = target: T1, mycobacterial isocitrate lyase (ICL1, Rv0467) (Mycobacterium tuberculosis, UniProt P9WKK7); test: Isocitrate lyase inhibition assay (ICL1); assay type: biochemical, Mycobacterium tuberculosis H37Rv; settings: 10 μmol/L; read-out: % ICL inhibition at 10 μmol/L (± standard deviation)
T1 construct: His tag (from pET-28b(+)); made in house; host or cells: E. coli BL21(DE3), pET-28b(+) plasmid
T1 sequence (P9WKK7 1-428): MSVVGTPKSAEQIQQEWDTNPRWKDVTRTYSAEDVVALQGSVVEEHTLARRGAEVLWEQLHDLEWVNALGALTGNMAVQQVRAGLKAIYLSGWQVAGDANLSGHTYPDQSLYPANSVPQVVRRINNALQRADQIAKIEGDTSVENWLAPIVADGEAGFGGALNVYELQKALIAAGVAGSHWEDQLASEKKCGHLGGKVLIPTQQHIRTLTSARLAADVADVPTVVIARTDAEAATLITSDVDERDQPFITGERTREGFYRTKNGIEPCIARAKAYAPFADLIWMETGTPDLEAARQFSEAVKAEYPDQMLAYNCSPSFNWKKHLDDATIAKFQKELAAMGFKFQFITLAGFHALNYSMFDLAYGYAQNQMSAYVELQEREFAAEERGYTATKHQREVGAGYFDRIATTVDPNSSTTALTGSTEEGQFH

[6] = tested on: Staphylococcus aureus CCM 4516/08; test: Antibacterial microdilution broth method; assay type: cell-based; settings: read-out: MIC/IC90 S. aureus CCM 4516/08
Method: as §1, §2

[7] = tested on: Escherichia coli CCM 4517; test: Antibacterial microdilution broth method; assay type: cell-based
Method: as §1, §2

[8] = tested on: Staphylococcus epidermidis H 6966/08; test: Antibacterial microdilution broth method; assay type: cell-based; settings: read-out: MIC/IC90 S. epidermidis H 6966/08
Method: as §1, §2

[9] = tested on: Enterococcus sp. J 14365/08; test: Antibacterial microdilution broth method; assay type: cell-based; settings: read-out: MIC/IC90 Enterococcus sp. J 14365/08
Method: as §1, §2

[10] = tested on: methicillin-resistant Staphylococcus aureus H 5996/08 (MRSA); test: Antibacterial microdilution broth method; assay type: cell-based; settings: read-out: MIC/IC90 MRSA H 5996/08
Method: as §1, §2

[11] = tested on: Mycobacterium tuberculosis 331/88 (H37Rv); test: Antimycobacterial MIC micromethod, Šula's medium; assay type: cell-based; settings: read-out: MIC Mtb. 331/88
[12] = tested on: HepG2 cells; test: Cytotoxicity evaluation (CellTiter 96 MTS); assay type: cell-based, human; settings: Homo sapiens, HepG2; 24 h, cytotoxicity; read-out: IC50 HepG2
Method: Seven esters and their parent salicylanilides with the most robust antimicrobial activity were tested for cytotoxicity in the human hepatocellular liver carcinoma cell line HepG2 (passages 21–24; ECACC, Salisbury, UK) using a standard colorimetric method measuring a tetrazolium salt reduction (CellTiter(R) 96 AQueous One Solution Assay, Promega G3580, Madison, WI, USA).
The cells were routinely cultured in Minimum Essentials Eagle Medium (Sigma-Aldrich, Darmstadt, Germany) supplemented with 10% foetal bovine serum (PAA; Biotech, Prague, Czech Republic), 1% of L-glutamine solution (Sigma-Aldrich), and non-essential amino acids solution (Sigma-Aldrich) in a humidified atmosphere containing 5% CO2 at 37 °C. For subculturing, the cells were harvested after trypsin/EDTA (Sigma-Aldrich) treatment at 37 °C. The cells treated with the tested substances were used as experimental groups. Untreated HepG2 cells were used as control groups.
The cells were seeded in density 1 × 10^4 cells per well in a 96-well plate with microscopic control. Next day, the cells were treated with each of the tested substances. […] The most of the tested compounds were prepared in incubation concentrations of 0.01–20 µM in triplicates. 4-(Trifluoromethyl)benzoic acid was applied in the concentrations of 10–4,000 µM in triplicates. The following types of controls were included: determination of 100% viability and 0% viability (the cells treated by 10% DMSO), no cell control and vehiculum controls. These checking samples were prepared in triplicates.
The treated cells were incubated together with controls at 37 °C for 24 h in 5% CO2 atmosphere. After this time reagent from the kit CellTiter 96 AQueous One Solution Cell Proliferation Assay was added. The CellTiter 96 assay is based on the reduction of tetrazolium salt MTS [3-(4,5-dimethylthiazol-2-yl)-5-(3-carboxymethoxyphenyl)-2-(4-sulfophenyl)-2H-tetrazolium] to water-soluble formazan dye by metabolically active cells. The reduction of the reagent is attributed to availability of NADH or NADPH. The decline in levels of these metabolically important compounds in the cell causes that the production of formazan is reduced. The tested plate was incubated for 2 h at 37 °C and 5% CO2 and after this time, the absorbance was recorded at 490 nm using a 96-well plate reader (TECAN, Infinite M200, Grödig, Austria).
The results were expressed as inhibitory concentration which is necessary to inhibit cell viability to 50% from the maximal (control) viability (IC50). A standard toxicological parameter IC50 was calculated in each of the tested substances using GraphPad Prism software (version 5.02; GraphPad Software Inc., San Diego, CA, USA).

[13] = CCM4517, 24 h, read-out: MIC/IC90 E. coli CCM 4517
[14] = CCM4517, 48 h, read-out: MIC/IC90 E. coli CCM 4517

SMILES	MIC [1] [µM]	MIC ([2]; 235/80, 168 h, 7 d) [µM]	MIC ([2]; 235/80, 336 h, 14 d) [µM]	MIC ([2]; 235/80, 504 h, 21 d) [µM]	MIC ([3]; 330/88, 336 h, 14 d) [µM]	MIC ([3]; 330/88, 504 h, 21 d) [µM]	MIC ([4]; 168 h, 7 d) [µM]	MIC ([4]; 336 h, 14 d) [µM]	MIC ([4]; 504 h, 21 d) [µM]	inhibition at 10 µM [5] [%]	MIC ([6]; CCM4516, 24 h) [µM]	MIC ([6]; CCM4516, 48 h) [µM]	MIC [7, 13] [µM]	MIC [7, 14] [µM]	MIC ([8]; H6966/08, 24 h) [µM]	MIC ([8]; H6966/08, 48 h) [µM]	MIC ([9]; SP.J14365/08, 24 h) [µM]	MIC ([9]; SP.J14365/08, 48 h) [µM]	MIC ([10]; 24 h) [µM]	MIC ([10]; 48 h) [µM]	further results
O=C(Oc1cc(Cl)ccc1C(=O)Nc1cccc(Br)c1)c1ccc(C(F)(F)F)cc1 [1h]	< 1	4 (≈ 1.99 µg/mL)	8 (≈ 3.99 µg/mL)	8 (≈ 3.99 µg/mL)	8 (≈ 3.99 µg/mL)	16 (≈ 7.98 µg/mL)	2 (≈ 0.997 µg/mL)	8 (≈ 3.99 µg/mL)	8 (≈ 3.99 µg/mL)	≥ 20	0.98 (≈ 0.489 µg/mL)	0.98 (≈ 0.489 µg/mL)	> 500	> 500	0.49 (≈ 0.244 µg/mL)	0.98 (≈ 0.489 µg/mL)	31.2 (≈ 15.6 µg/mL)	250 (≈ 125 µg/mL)	0.49 (≈ 0.244 µg/mL)	0.98 (≈ 0.489 µg/mL)	MIC ([11]; 336 h, 14 d): 4 µM (≈ 1.99 µg/mL); MIC ([11]; 504 h, 21 d): 8 µM (≈ 3.99 µg/mL)
O=C(Oc1ccc(Cl)cc1C(=O)Nc1cccc(F)c1)c1ccc(C(F)(F)F)cc1 [1k]	< 1	8 (≈ 3.5 µg/mL)	16 (≈ 7 µg/mL)	16 (≈ 7 µg/mL)	16 (≈ 7 µg/mL)	32 (≈ 14 µg/mL)	8 (≈ 3.5 µg/mL)	16 (≈ 7 µg/mL)	16 (≈ 7 µg/mL)	≥ 20	3.9 (≈ 1.71 µg/mL)	3.9 (≈ 1.71 µg/mL)	> 250	> 250	3.9 (≈ 1.71 µg/mL)	3.9 (≈ 1.71 µg/mL)	31.2 (≈ 13.7 µg/mL)	> 250	0.98 (≈ 0.429 µg/mL)	1.95 (≈ 0.854 µg/mL)	MIC ([11]; 336 h, 14 d): 8 µM (≈ 3.5 µg/mL); MIC ([11]; 504 h, 21 d): 8 µM (≈ 3.5 µg/mL)
O=C(Oc1cc(Cl)ccc1C(=O)Nc1ccc(C(F)(F)F)cc1)c1ccc(C(F)(F)F)cc1 [1p]	< 1	2 (≈ 0.976 µg/mL)	2 (≈ 0.976 µg/mL)	4 (≈ 1.95 µg/mL)	2 (≈ 0.976 µg/mL)	8 (≈ 3.9 µg/mL)	1 (≈ 0.488 µg/mL)	4 (≈ 1.95 µg/mL)	4 (≈ 1.95 µg/mL)	17 ± 2.3	0.49 (≈ 0.239 µg/mL)	0.98 (≈ 0.478 µg/mL)	31.2 (≈ 15.2 µg/mL)	250 (≈ 122 µg/mL)	0.49 (≈ 0.239 µg/mL)	0.98 (≈ 0.478 µg/mL)	0.49 (≈ 0.239 µg/mL)	3.9 (≈ 1.9 µg/mL)	0.49 (≈ 0.239 µg/mL)	0.98 (≈ 0.478 µg/mL)	IC50 [12]: 1770 nM; MIC ([7]; CCM4517, time not stated, read-out: MIC E. coli (partial susceptibility)): 31.2 µM (≈ 15.2 µg/mL); MIC ([11]; 336 h, 14 d): 2 µM (≈ 0.976 µg/mL); MIC ([11]; 504 h, 21 d): 2 µM (≈ 0.976 µg/mL)
